Assay results published in patent publication US20180311364A1, “Protease Triggered Release Of Molecules From Hydrogels” (The Trustees of the University of Pennsylvania, priority 2010, published 2018).

Test: Triggered release of ilomastat from HA-aldehyde / HA-peptide-hydrazide hydrogel
Type: physicochemical
Description: Ilomastat was ground into a fine powder of uniform microparticles. These microparticles were suspended in the dissolved HA-aldehyde and HA-peptide-hydrazide solutions at 10 μg per 100 μL of polymer solution. At this concentration ilomastat remains a solid particle within the polymer solution. HA-aldehyde and HA-peptide-hydrazide polymers were mixed 1:1 aldehdye:hydrazide to induce crosslinking into a solid gel. The gels were incubated in phosphate buffered saline at 37° C. After 14 days less than 10% of the ilomastat was released from the gels due to hydrophobic interactions of the ilomastat in the microparticles. The gels were then exposed to collagenase 200 U/mL and the gels degraded.

SMILES: CNC(=O)[C@H](Cc1c[nH]c2ccccc12)NC(=O)[C@@H](CC(=O)NO)CC(C)C [ilomastat, Ilomastat]
- ilomastat release after gel degradation (HPLC) (gels exposed to collagenase 200 U/mL after 14 days in PBS, gels degraded): solubilized in the larger volume of the buffer
- ilomastat released from the gels (gels incubated in phosphate buffered saline at 37° C., after 14 days, ilomastat microparticles 10 μg per 100 μL polymer solution): less than 10%
